Toxic doses and inconclusive results are not listed. Rule as the data show it: active = T/C of 150% or more; inactive = T/C below 125%.
Tested on: L1210 leukemia ip in BDF1 mice, survival T/C
Test: NCI In Vivo Anticancer Drug Screen. Data for tumor model L1210 Leukemia (intraperitoneal) in B6D2F1 (BDF1) mice
Details: endpoint: mean survival time, higher = longer survival
How it was run: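 Transplantable tumor model; survival measured in treated vs vehicle control mice. Value = treated/control.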

[1] = dose: 100.0 mg/kg/injection, schedule: Q04DX002 (ip), vehicle: Klucel (hydroxypropylcellulose) (HPC)
[2] = dose: 200.0 mg/kg/injection, schedule: Q04DX002 (ip), vehicle: Klucel (hydroxypropylcellulose) (HPC)
[3] = dose: 400.0 mg/kg/injection, schedule: Q04DX002 (ip), vehicle: Klucel (hydroxypropylcellulose) (HPC)

Measured: T/C

S=C(Nc1ccccc1)NC1CCC(CC2CCCCC2)CC1 (stereo not given)
inactive: dose: 75.0 mg/kg/injection, schedule: Q01DX009 (ip), vehicle: Klucel (hydroxypropylcellulose) (HPC) 105 % of control | dose: 100.0 mg/kg/injection, schedule: Q04DX003 (ip), vehicle: Klucel (hydroxypropylcellulose) (HPC) 108 % of control | dose: 150.0 mg/kg/injection, schedule: Q01DX009 (ip), vehicle: Klucel (hydroxypropylcellulose) (HPC) 107 % of control | dose: 200.0 mg/kg/injection, schedule: Q04DX003 (ip), vehicle: Klucel (hydroxypropylcellulose) (HPC) 108 % of control

CC(C)CNc1ccc(S(=O)(=O)c2ccc(NCC(C)C)c([N+](=O)[O-])c2)cc1[N+](=O)[O-]
inactive: dose: 3.12 mg/kg/injection, schedule: Q01DX009 (ip), vehicle: DMSO 92 % of control | dose: 6.25 mg/kg/injection, schedule: Q01DX009 (ip), vehicle: DMSO 89 % of control | dose: 12.5 mg/kg/injection, schedule: Q01DX009 (ip), vehicle: DMSO 105 % of control | dose: 25.0 mg/kg/injection, schedule: Q01DX005 (ip), vehicle: DMSO 92 % of control | dose: 25.0 mg/kg/injection, schedule: Q01DX009 (ip), vehicle: DMSO 88 % of control | dose: 50.0 mg/kg/injection, schedule: Q01DX005 (ip), vehicle: DMSO 92 % of control | dose: 100.0 mg/kg/injection, schedule: Q01DX005 (ip), vehicle: DMSO 90 % of control | dose: 100.0 mg/kg/injection, schedule: Q04DX002 (ip), vehicle: DMSO 96 % of control | dose: 200.0 mg/kg/injection, schedule: Q04DX002 (ip), vehicle: DMSO 111 % of control | dose: 400.0 mg/kg/injection, schedule: Q04DX002 (ip), vehicle: DMSO 107 % of control

Cc1cc(/C=C/c2ccc3cc(N(C)C)ccc3[n+]2C)c(C)n1-c1ccccc1
inactive: dose: 1.56 mg/kg/injection, schedule: Q01DX009 (ip), vehicle: saline with Tween-80 112 % of control

COc1ccccc1N1CCN(CC(O)COc2ccccc2C(C)=O)CC1 (stereo not given)
inactive: dose: 25.0 mg/kg/injection, schedule: Q01DX009 (ip), vehicle: saline with Tween-80 107 % of control | dose: 50.0 mg/kg/injection, schedule: Q01DX009 (ip), vehicle: saline with Tween-80 105 % of control | dose: 100.0 mg/kg/injection, schedule: Q01DX009 (ip), vehicle: saline with Tween-80 109 % of control | dose: 100.0 mg/kg/injection, schedule: Q04DX003 (ip), vehicle: saline with Tween-80 96 % of control

CSc1ncnc2c1ncn2C1CCCO1 (stereo not given)
inactive: dose: 37.5 mg/kg/injection, schedule: Q01DX Z (ip), vehicle: methylcellulose (MC) 101 % of control | dose: 75.0 mg/kg/injection, schedule: Q01DX Z (ip), vehicle: methylcellulose (MC) 111 % of control

CNC(C)(C)CO
inactive: dose: 100.0 mg/kg/injection, schedule: Q04DX003 (ip), vehicle: saline 100 % of control | dose: 200.0 mg/kg/injection, schedule: Q04DX003 (ip), vehicle: saline 107 % of control | dose: 400.0 mg/kg/injection, schedule: Q04DX003 (ip), vehicle: saline 104 % of control

Nc1cc(OCc2ccccc2)ncn1
inactive: dose: 25.0 mg/kg/injection, schedule: Q01DX001 (ip), vehicle: Klucel (hydroxypropylcellulose) (HPC) 103 % of control | dose: 50.0 mg/kg/injection, schedule: Q01DX001 (ip), vehicle: Klucel (hydroxypropylcellulose) (HPC) 109 % of control | dose: 100.0 mg/kg/injection, schedule: Q01DX001 (ip), vehicle: Klucel (hydroxypropylcellulose) (HPC) 97 % of control

O=C(O)c1c2ccccc2nc2[nH]c(=O)[nH]c(=O)c12
inactive: [1] 97 % of control | [2] 108 % of control | [3] 108 % of control

C[S+]1C=Cc2ccccc2C1c1ccc(Cl)cc1 (stereo not given)
inactive: dose: 25.0 mg/kg/injection, schedule: Q04DX002 (ip), vehicle: Klucel (hydroxypropylcellulose) (HPC) 117 % of control

Nc1nc(N)c2[nH]cnc2n1 (tested in a mixture with another compound)
inactive: dose: 100.0 mg/kg/injection, schedule: Q01DX001 (ip), vehicle: carboxymethylcellulose (CMC) 93 % of control | dose: 200.0 mg/kg/injection, schedule: Q01DX001 (ip), vehicle: carboxymethylcellulose (CMC) 89 % of control | dose: 400.0 mg/kg/injection, schedule: Q01DX001 (ip), vehicle: carboxymethylcellulose (CMC) 94 % of control

CCCCCCCCCCCCCCCCCCNC(=O)NCc1ccncc1
inactive: [1] 94 % of control | [2] 123 % of control | [3] 87 % of control

C=CCNC(=S)Nc1c(C)cc(C)cc1C
inactive: dose: 12.5 mg/kg/injection, schedule: Q01DX009 (ip), vehicle: Klucel (hydroxypropylcellulose) (HPC) 102 % of control | dose: 25.0 mg/kg/injection, schedule: Q01DX009 (ip), vehicle: Klucel (hydroxypropylcellulose) (HPC) 97 % of control | dose: 50.0 mg/kg/injection, schedule: Q01DX009 (ip), vehicle: Klucel (hydroxypropylcellulose) (HPC) 103 % of control

Source: PubChem BioAssay AID248 (DTP/NCI, 2004)
